ChEMBL document CHEMBL5584314, “Identification of an m6A Natural Inhibitor, Lobeline, That Reverses Lenvatinib Resistance in Hepatocellular Tumors” (J Nat Prod, 2024)
Calls of active or inactive are those of the source. The rule behind the calls is not given here.

Legend:
[1] = biological target: N6-adenosine-methyltransferase catalytic subunit (Homo sapiens) (UniProt Q86U44); experiment: Inhibition of METTL3 in human Lenvatinib-resistant Huh7/Len cells assessed as effect on CRB3 mRNA expression level at 2 uM incubated for 72 hrs by RT-PCR analysis; format: cell-based
[2] = biological target: N6-adenosine-methyltransferase catalytic subunit (Homo sapiens) (UniProt Q86U44); experiment: Inhibition of METTL3 in human Lenvatinib-resistant Huh7/Len cells assessed as effect on TIBIM6 mRNA expression level at 2 uM incubated for 72 hrs by RT-PCR analysis; format: cell-based
[3] = system: Lenvatinib-resistant Huh7/Len; experiment: Antitumor activity against human Lenvatinib-resistant Huh7/Len cells xenografted in BALB/c nude mouse assessed as reduction in m6A level in tumor tissue at 1.5 mg/kg, ip 5 times per week for 3 weeks by immunohistochemistry analysis; format: functional, organism-based
[4] = system: Lenvatinib-resistant Huh7/Len; experiment: Inhibition of cell migration in human Lenvatinib-resistant Huh7/Len cells at 5 uM incubated for 48 hrs by transwell assay; format: functional, cell-based
[5] = system: Lenvatinib-resistant Huh7/Len; experiment: Antiproliferative activity against human Lenvatinib-resistant Huh7/Len cells assessed as inhibition of clone formation ability at 5 uM preincubated for 72 hrs and measured after 7 to 10 days by crystal violet staining based assay; format: functional, cell-based; conditions: time 10-13 day
[6] = system: Lenvatinib-resistant Huh7/Len; experiment: Anticancer activity against human Lenvatinib-resistant Huh7/Len cells assessed as reduction in UBE3B protein expression at 2 uM by Western blot analysis; format: functional, cell-based
[7] = biological target: N6-adenosine-methyltransferase catalytic subunit (Homo sapiens) (UniProt Q86U44); experiment: Inhibition of METTL3 in human Lenvatinib-resistant Huh7/Len cells assessed as effect on EZH2 mRNA expression level at 2 uM incubated for 72 hrs by RT-PCR analysis; format: cell-based
[8] = biological target: N6-adenosine-methyltransferase catalytic subunit (Homo sapiens) (UniProt Q86U44); experiment: Inhibition of METTL3 in human Lenvatinib-resistant Huh7/Len cells assessed as effect on IFIT2 mRNA expression level at 2 uM incubated for 72 hrs by RT-PCR analysis; format: cell-based
[9] = system: Lenvatinib-resistant Huh7/Len; experiment: Antitumor activity against human Lenvatinib-resistant Huh7/Len cells xenografted in BALB/c nude mouse assessed as inhibition of tumor volume at 1.5 mg/kg, ip cotreated with lenvatinib 5 times per week for 3 weeks relative to control; format: functional; conditions: 504 h
[10] = biological target: N6-adenosine-methyltransferase catalytic subunit (Homo sapiens) (UniProt Q86U44); experiment: Inhibition of METTL3 in human Lenvatinib-resistant Huh7/Len cells assessed as effect on MYC mRNA expression level at 2 uM incubated for 72 hrs by RT-PCR analysis; format: cell-based
[11] = system: Lenvatinib-resistant Huh7/Len; experiment: Anticancer activity against human Lenvatinib-resistant Huh7/Len cells assessed as increase in m6A modification in terminator region by MeRIP-m6A -sequencing analysis; format: functional, cell-based
[12] = Toxicity in BALB/c nude mouse PDX model xenografted with human Lenvatinib-resistant HCC/Len cells assessed as changes in organ index at 1.5 mg/kg, ip administered 5 times per week for 3 weeks; format: organism-based; conditions: in vivo, 504 h
[13] = biological target: N6-adenosine-methyltransferase catalytic subunit (Homo sapiens) (UniProt Q86U44); experiment: Inhibition of METTL3 in human Lenvatinib-resistant Huh7/Len cells assessed as effect on FGFR3 mRNA expression level at 2 uM incubated for 72 hrs by RT-PCR analysis; format: cell-based
[14] = system: Lenvatinib-resistant Huh7/Len; experiment: Antitumor activity against human Lenvatinib-resistant Huh7/Len cells xenografted in BALB/c nude mouse assessed as reduction in METTL3 protein expression at 1.5 mg/kg, ip 5 times per week for 3 weeks by Western blot assay; format: functional, organism-based
[15] = biological target: N6-adenosine-methyltransferase catalytic subunit (Homo sapiens) (UniProt Q86U44); experiment: Inhibition of METTL3 in human Lenvatinib-resistant Huh7/Len cells assessed as effect on GATA3 mRNA expression level at 2 uM incubated for 72 hrs by RT-PCR analysis; format: cell-based
[16] = biological target: N6-adenosine-methyltransferase catalytic subunit (Homo sapiens) (UniProt Q86U44); experiment: Inhibition of METTL3 in human Lenvatinib-resistant Huh7/Len cells assessed as effect on MMP13 mRNA expression level at 2 uM incubated for 72 hrs by RT-PCR analysis; format: cell-based
[17] = system: Lenvatinib-resistant Huh7/Len; experiment: Antiproliferative activity against human Lenvatinib-resistant Huh7/Len cells assessed as inhibition of clone formation ability at 5 uM preincubated for 72 hrs and measured after 7 to 10 days in presence of lenvatinib by crystal violet staining based assay; format: functional, cell-based; conditions: time 10-13 day
[18] = Toxicity in BALB/c nude mouse PDX model xenografted with human Lenvatinib-resistant HCC/Len cells assessed as changes in body weight at 1.5 mg/kg, ip administered 5 times per week for 3 weeks; format: organism-based; conditions: in vivo, 504 h
[19] = Toxicity in BALB/c nude mouse xenografted with human Lenvatinib-resistant Huh7/Len cells assessed as changes in organ index at 1.5 mg/kg, ip cotreated with lenvatinib 5 times per week for 3 weeks; format: organism-based; conditions: in vivo, 504 h
[20] = system: Lenvatinib-resistant Hep3B/Len; experiment: Antiproliferative activity against human Lenvatinib-resistant Hep3B/Len cells assessed as inhibition of clone formation ability at 5 uM preincubated for 72 hrs and measured after 7 to 10 days by crystal violet staining based assay; format: functional, cell-based; conditions: time 10-13 day
[21] = system: Lenvatinib-resistant Huh7/Len; experiment: Antitumor activity against human Lenvatinib-resistant Huh7/Len cells xenografted in BALB/c nude mouse assessed as tumor growth inhibition at 1.5 mg/kg, ip cotreated with lenvatinib 5 times per week for 3 weeks; format: functional, organism-based
[22] = Toxicity in BALB/c nude mouse PDX model xenografted with human Lenvatinib-resistant HCC/Len cells assessed as changes in organ index at 1.5 mg/kg, ip cotreated with lenvatinib 5 times per week for 3 weeks; format: organism-based; conditions: in vivo, 504 h
[23] = system: Lenvatinib-resistant Huh7/Len; experiment: Anticancer activity against human Lenvatinib-resistant Huh7/Len cells assessed as reduction in UBE3B mRNA expression at 2 uM by qPCR analysis; format: functional, cell-based
[24] = system: Lenvatinib-resistant Huh7/Len; experiment: Anticancer activity against human Lenvatinib-resistant Huh7/Len cells assessed as increase in m6A modification in promoter region by MeRIP-m6A -sequencing analysis; format: functional, cell-based
[25] = biological target: N6-adenosine-methyltransferase catalytic subunit (Homo sapiens) (UniProt Q86U44); experiment: Inhibition of METTL3 in human Lenvatinib-resistant Huh7/Len cells assessed as effect on IFFO1 mRNA expression level at 2 uM incubated for 72 hrs by RT-PCR analysis; format: cell-based
[26] = system: Lenvatinib-resistant Huh7/Len; experiment: Antitumor activity against human Lenvatinib-resistant Huh7/Len cells xenografted in BALB/c nude mouse assessed as reduction in m6A RNA level at 1.5 mg/kg, ip 5 times per week for 3 weeks by Dot blot assay; format: functional, organism-based
[27] = system: Lenvatinib-resistant Hep3B/Len; experiment: Antiproliferative activity against human Lenvatinib-resistant Hep3B/Len cells assessed as inhibition of clone formation ability at 5 uM preincubated for 72 hrs and measured after 7 to 10 days in presence of lenvatinib by crystal violet staining based assay; format: functional, cell-based; conditions: time 10-13 day
[28] = system: Lenvatinib-resistant HCC/Len; experiment: Antitumor activity against human Lenvatinib-resistant HCC/Len cells xenografted in BALB/c nude mouse model of PDX assessed as reduction in METTL3 protein expression at 1.5 mg/kg, ip 5 times per week for 3 weeks by Western blot assay; format: functional, organism-based
[29] = system: Lenvatinib-resistant HCC/Len; experiment: Antitumor activity against human Lenvatinib-resistant HCC/Len cells xenografted in BALB/c nude mouse model of PDX assessed as tumor growth inhibition at 1.5 mg/kg, ip cotreated with lenvatinib 5 times per week for 3 weeks; format: functional, organism-based
[30] = biological target: N6-adenosine-methyltransferase catalytic subunit (Homo sapiens) (UniProt Q86U44); experiment: Binding affinity to METTL3 in human Huh-7 cells assessed as thermal stability at 44 to 64 degreeC at 2 uM incubated for 30 mins followed by […] analysis; format: cell-based

Sequence of N6-adenosine-methyltransferase catalytic subunit (Homo sapiens) (Q86U44 whole entry): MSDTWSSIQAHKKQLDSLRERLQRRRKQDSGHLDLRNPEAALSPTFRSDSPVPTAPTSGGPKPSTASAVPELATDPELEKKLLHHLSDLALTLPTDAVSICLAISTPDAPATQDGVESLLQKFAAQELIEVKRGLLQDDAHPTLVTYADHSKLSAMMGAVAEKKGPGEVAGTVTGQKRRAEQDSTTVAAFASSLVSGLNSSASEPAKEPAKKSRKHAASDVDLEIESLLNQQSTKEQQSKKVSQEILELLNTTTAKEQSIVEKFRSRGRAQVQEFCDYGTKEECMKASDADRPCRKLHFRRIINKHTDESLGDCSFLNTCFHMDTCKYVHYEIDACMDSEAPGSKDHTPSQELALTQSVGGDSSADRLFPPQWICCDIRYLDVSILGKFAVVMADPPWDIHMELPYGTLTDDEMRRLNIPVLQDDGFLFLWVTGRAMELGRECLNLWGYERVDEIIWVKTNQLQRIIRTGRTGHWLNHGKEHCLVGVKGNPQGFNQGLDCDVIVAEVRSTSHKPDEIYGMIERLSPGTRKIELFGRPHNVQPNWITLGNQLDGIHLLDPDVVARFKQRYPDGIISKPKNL

**Q.** For CN1[C@@H](CC(=O)c2ccccc2)CCC[C@H]1C[C@H](O)c1ccccc1 [LOBELINE], which inhibition [1] is on record?
**A.** Active

**Q.** What about the inhibition [2] of the same molecule?
**A.** Active

**Q.** And the Activity [3]?
**A.** Active

**Q.** And the inhibition [4]?
**A.** inactive

**Q.** And the inhibition [5]?
**A.** inactive

**Q.** And the Activity [6]?
**A.** Active

**Q.** And the inhibition [7]?
**A.** Active

**Q.** And the inhibition [8]?
**A.** Active

**Q.** What about the inhibition in vivo at 1.5 mg/kg [9] of the same molecule?
**A.** 68%

**Q.** And the inhibition [10]?
**A.** Active

**Q.** And the Activity [11]?
**A.** Active

**Q.** What about the Activity [12] of the same molecule?
**A.** Non-Toxic

**Q.** What about the inhibition [13] of the same molecule?
**A.** Active

**Q.** And the Activity [14]?
**A.** inactive

**Q.** And the inhibition [15]?
**A.** Active

**Q.** And the inhibition [16]?
**A.** Active

**Q.** And the inhibition [17]?
**A.** inactive

**Q.** And the Activity [18]?
**A.** Non-Toxic

**Q.** And the Activity [19]?
**A.** Non-Toxic

**Q.** And the inhibition [20]?
**A.** inactive

**Q.** And the TGI [21]?
**A.** Active

**Q.** And the Activity [22]?
**A.** Non-Toxic

**Q.** And the Activity [23]?
**A.** Active

**Q.** What about the Activity [24] of the same molecule?
**A.** Active

**Q.** What about the inhibition [25] of the same molecule?
**A.** Active

**Q.** And the Activity [26]?
**A.** inactive

**Q.** What about the inhibition [27] of the same molecule?
**A.** inactive

**Q.** And the Activity [28]?
**A.** inactive

**Q.** What about the TGI [29] of the same molecule?
**A.** Active

**Q.** And the Activity [30]?
**A.** Active
